From patent US9072729B2, “Method for treating fibrosis and cancer with imidazolium and imidazolinium compounds” (Agency for Science, Technology and Research, priority 2008, dated 2015)
Like-named read-outs stand apart in the source and are kept apart here.

How the values were obtained:
Assay type in all cases: cell-based, rat
[1] = tested on: HSC T6 cells; assay: MTS based proliferation assay (cytotoxicity) on cultured HSC-T6 cells; details: for IC50: read-out: IC50 (toxicity on T6 cells); for inhibition of cell proliferation: 48 h, 10% FBS DMEM
Method: FIG. 1. Cytotoxicity of (a) DBZIM and (b) TDBZIM. […] The signal was normalized against a vehicle control treatment (0 μM of compound). The data were obtained from four independent experiments, and presented as mean and standard error or mean (SEM), *^aP<0.05, *^bP<0.01 and *^cP<0.005.
Firstly we assessed the cytotoxicity of DBZIM and TDBZIM on cultured HSC-T6 cells using a 3-(4,5-dimethylthiazol-2-yl)-5-(3-carboxymethoxyphenyl)-2-(4-sulfophenyl)-2H-tetrazolium (MTS) based proliferation assay kit (Promega, Wis., USA). […]

[2] = tested on: HSC-T6 cells; assay: Cellular ROS determination (DCF labeling); details: 48 h
Method: FIG. 2. (a) DBZIM and (b) TDBZIM attenuated cellular ROS level. HSC T6 cells were incubated with DBZIM (10, 50, 100 and 300 μM), TDBZIM (10, 50 and 100 μM), NAC (1 mM) and EGCG (25 μM) for 48 h before assaying for cellular ROS levels. The data were presented as relative values after normalizing against a vehicle control. The data were presented as mean and SEM, N=6, *^bP<0.01, *^cP<0.005, and *^dP<0.0005 when compared to the vehicle, control.
The ROS level of treated HSC-T6 cells was determined using the dichlorofluorescein (DCF) labeling method (Molecular Probes Inc., OR, USA). Cultured cells were harvested by trypsinization, and resuspended in phenol red-free DMEM (Invitrogen). Cells were then incubated with 10 μg/ml of 2′,7′-dichloro-fluorescein diacetate (DCFH-DA) in DMEM for 15 min before resuspension in DMEM for assaying. Cell solution was dispensed into a black-wall 96-well pate in triplicate for fluorescence readout at Ex=485 nm and Em=530 nm with a Tecan Safire II plate reader. The fluorescence unit was normalized against viable cell numbers, which were determined using 3-(4,5-dimethylthiazol-2-yl)-2,5-diphenyl tetrazolium bromide (MTT assay, Promega, Wis., USA). Cellular ROS level was expressed relative to the control sample.

[3] = tested on: HSC-T6 cells; assay: Glutathione (GSH) and GSSG assays; details: 48 h
Method: FIG. 3. […] (c) DBZIM and (d) TDBZIM both suppressed cellular GSSG (the oxidation product of GSH). (e) DBZIM and (f) TDBZIM both enhanced the GSH/GSSG ratio. HSC-T6 cells were incubated with compounds of various concentrations for 48 h, and assayed for the total GSH and GSSG amounts. The GSH/GSSG ratio was calculated as (GSH−GSSG)/GSSG. The GSH and GSSG amounts were normalized against the total protein. Note that DBZIM was dissolved in DMSO, and TDBZIM was dissolved in H2O. The data were presented as mean and SEM, N=6, *^aP<0.05, *^bP<0.01, *^cP<0.005, and *^dP<0.0005, when compared to the vehicle control.
Total cellular GSH and GSSG levels were determined by using assay kits from Cayman Chemical (Ann Arbor, Mich., USA) following the manufacturer's instructions. Briefly, HSC-T6 cells treated with DBZIM, TDBZIM, NAC, or EGCG were scalped and homogenized in phosphate buffered saline (PBS) by sonication at 60% frequency for 30 s, and the supernatant was collected after centrifugation at 16,000×g for 10 min at 4° C. Protein content of the samples was determined by bicinchonicic acid (BCA) assay.
For GSH assays, the protein sample was deproteinated by metaphosphoric acid (Aldrich, Catalog No. 23927-5), and the pH was adjusted by triethanolamine (Aldrich, Catalog No. T5830-0) according to the manual. The sample was ready for assaying total GSH including both the reduced and oxidized forms. Quantification of GSSG, exclusive of GSH, was performed by first derivatizing GSH with 2-vinylpyridine and assaying separately. Colorimetric signal was recorded at 405 nm with a Tecan Safire II plate reader. The levels of GSH or GSSG were determined as nmol/μg protein.

[4] = tested on: SMAA; assay: Real-time RT-PCR of SMAA mRNA in HSC T6 cells; details: for change of SMAA mRNA: 8 h
Method: FIG. 6. (a) DBZIM and (b) TDBZIM suppressed the mRNA expression of HSC activation markers (GFAP and SMAA) and fibrotic endpoints (col1a1 and fibronectin) in a dosage-dependent manner. […] The ΔΔCt method was used for relative quantification with vehicle control sample being the calibrator. The data were presented as mean and SEM, N=6, *^aP<0.05, *^bP<0.01, *^cP<0.005, and *^dP<0.0005, when compared to the vehicle control. FIG. 7. DBZIM (100 μM) and TDBZIM (100 μM) suppressed (a) GFAP, (b) SMAA, (c) col1a1 and (d) fibronectin mRNA expression in a time-dependent manner. HSC T6 cells were treated with DBZIM and TDBZIM, and assayed after 8, 24 and 48 h. […] FIG. 14. […] (50 μM), […] (50 μM), […] (10 μM) and DBZBIM (100 μM) were dissolved in DMSO with a final DMSO concentration of 0.2% (v/v). DPIM (2 mM), EGCG (25 μM) and DBZIM (100 μM) were dissolved in H2O. β-actin was used as the normalization gene; its expression was constant under the experimental conditions. Relative quantification was normalized against the respective vehicle control. The data were presented as mean and SEM, N=6, *^aP<0.05, *^cP<0.005, and *^dP<0.0005, when compared to the vehicle control. Total RNA was isolated using NucleoSpin RNAII isolation kit ([…], Germany), and quantified by ND-100 spectrophotometer (Nanodrop Technologies, DE, USA). The details of real-time RT-PCR were reported elsewhere (Zhang et al. 2006). Briefly, it was a two-step real-time RT-PCR using Taqman chemistry. Total RNA was first reverse transcribed to cDNA, and real-time PCR was run and detected in ABI 7500 Fast Real-Time PCR System (Applied Biosystems, CA, USA). Primers and probes for rat GFAP, SMAA, collagen Ia1, fibronectin, TGF-β1, TGF-β receptor I (TGFβ RI) and IL-6 were ordered from Taqman's assay-on-demand database. Rat β-actin was used as normalization gene, and its expression level was constant (CT difference was <±0.5) throughout the experimental settings in this study. Relative quantification of target mRNA was calculated using comparative threshold cycle method (ΔΔCT) as described in User Bulletin #2 (ABI Prism 7700 Sequence Detection System). Relative quantification was given by 2^-ΔΔCT to express the up-regulation or down regulation of the target gene under the treatments compared to the control.

[5] = Rattus norvegicus, HSC-T6, HSC T6 cells

1,3,5-tris(4-methyl-imidazolium)-linked cyclophane.3Br [TDBZIM]
IC50 ([1]; HSC T6 cells): ~500 µM | inhibition of cell proliferation ([1]; TDBZIM 125-200 μM): 13-19% | suppression of cellular ROS level ([2]; 10 μM): 19% | suppression of cellular ROS level ([2]; 100 μM): 36% | depletion of GSSG ([3]; 10 μM): 12% | enhancement of GSH/GSSG ratio ([3]; 10 μM): 14% | depletion of GSSG ([3]; 50 μM): 35% | enhancement of GSH/GSSG ratio ([3]; 50 μM): 65% | depletion of GSSG ([3]; 100 μM): 50% | enhancement of GSH/GSSG ratio ([3]; 100 μM): 106% | effect on total cellular GSH level ([3]; 10-100 μM): did not alter | decrease of SMAA mRNA ([4]; 1 μM, 48 h): 27% | change of SMAA mRNA ([4]; 100 μM): no change | transient induction of SMAA mRNA ([4]; 100 μM, 24 h): up to 79%

[Br-].c1ccc(Cn2cc[n+](Cc3ccccc3)c2)cc1 [DBZIM, 1,3-bisbenzylimidazolium bromide]
inhibition of cell proliferation ([1]; DBZIM 250-400 μM): 3.5-8.9% | IC50 [1, 5]: 1700 µM | suppression of cellular ROS level ([2]; 50 μM): 25% | suppression of cellular ROS level ([2]; 300 μM): 34% | attenuation of total GSH level ([3]; 10 μM): 7% | depletion of GSSG ([3]; 10 μM): 13% | enhancement of GSH/GSSG ratio ([3]; 10 μM): 8% | attenuation of total GSH level ([3]; 50 μM): 12% | depletion of GSSG ([3]; 50 μM): 23% | enhancement of GSH/GSSG ratio ([3]; 50 μM): 15% | attenuation of total GSH level ([3]; 100 μM): 20% | enhancement of GSH/GSSG ratio ([3]; 100 μM): 23% | GSH/GSSG ratio relative to control group ([3]; 300 μM): 7.4 fold | depletion of GSSG ([3]; 300 μM): 85% | enhancement of total GSH level ([3]; 300 μM, without statistical significance): 8% | depletion of GSSG ([3]; 1001 μM): 35% | change of SMAA mRNA ([4]; 100 μM): no change | decrease of SMAA mRNA ([4]; 100 μM, 48 h): 21% | decrease of SMAA mRNA ([4]; 300 μM, 48 h): 58%

CC(C)n1cc[n+](C(C)C)c1.F[B-](F)(F)F [DPIM, 1,3-diisopropylimidazolium tetrafluoroborate]
IC50 [1, 5]: 3100 µM | suppression of SMAA mRNA ([4]; 48 h, DBIM 1 mM, DPIM 2 mM, AMIM 50 μM, TMPHIM 50 μM): 78%

(−)-Epigallocatechin gallate [EGCG, reference compound]
attenuation of cellular ROS level (references) ([2]; EGCG 25 μM, NAC 1 mM): 14% | reduction of GSSG (references) ([3]; EGCG 25 μM, NAC 5 mM): 42% | increase in GSH/GSSG ratio (references) ([3]; NAC 5 mM, EGCG 25 μM): 2 fold | induction of total GSH (references) ([3]; NAC 5 mM, EGCG 25 μM): 19%
